# Assay results reported in paper PMC6689897, “Drugging an undruggable pocket on KRAS” (Proceedings of the National Academy of Sciences of the …, 2019).
# Legend:
# NCI-H358 cells [1] = assay: Soft agar proliferation assay in low serum; assay type: cell-based; conditions: Homo sapiens, soft agar and low serum conditions, read-out: EC50 antiproliferative effect
# Experimental: (§1) 263 (ATCC® CCL-224™; grown in RPMI 10% FCS) and SK-MEL-28 (ATCC® HTB-
# (§2) 264 72™, grown in EMEM 10% FCS). Cell cultures were incubated at 37 °C and 5% CO2 in
# (§3) 265 a humidified atmosphere, with medium change or subcultivation 2-3 times a week.
# (§4) 269 Cells were lysed in 1x lysis buffer (Cell Signaling #9803) and protein concentration
# (§5) 270 normalized to 10µg/µL. Proteins were separated by SDS-Page and transferred to
# (§6) 271 Nitrocellulose membranes (BioRad) according to standard protocols. Membranes were
# (§7) 273 (Milipore #06-182) and Tubulin (Cell Signaling #2144) in 5% BSA in TBST blocking
# (§8) 274 buffer. After primary antibody incubation membranes were incubated with anti-rabbit
# (§9) 275 IgG secondary antibody (Dako #P0448) and detected with ECL (GE Healthcare Life
# (§10) 278 Compound treatment of cells
# (§11) 279 Synthesized or purchased (ARS 1620) compounds were dissolved in 100% DMSO and
# 280 stored at a concentration of 10mM at -20°C. Compounds were either serially diluted in […]
# (§12) Quantification of living cells […]
# (§13) 291 manufacturer’s recommendation. Luminescence was read in a 2030 VICTOR X5 (Perkin […]
# (§14) 305 were trypsinized, counted and plated in 60 µL culture medium containing 2% FCS […]
# 313 added according to manufacturer’s instructions. Fluorescence intensity was determined
# 314 using a fluorescence reader (2030 VICTOR X5, Perkin Elmer). […]
# 319 MAPK pathway signaling (pERK, pAKT quantification) […]
# NCI-H358 cells [2] = assay: 2D proliferation assay; assay type: cell-based, human; conditions: standard 2D culture conditions
# Experimental: as §1, §2, §3, §4, §5, §6, §7, §8, §9, §10, §11
# 280 stored at a concentration of 10mM at -20°C. Compounds were either serially diluted in
# 281 medium or directly added to reach the intended final concentration. DMSO was added
# 282 to control reactions as reference to keep the final DMSO concentration in all samples
# 285 2D proliferation assay: […]
# as §12, §13, §14
structure (smiles),measurement,setting,value
Cn1cnc(Cn2ccc3ccc(CNCc4[nH]c5ccccc5c4[C@H]4NC(=O)c5ccc(O)cc54)cc32)c1 [Compound 1],EC50,NCI-H358 cells [1],6.7 µM
same,antiproliferative effect,NCI-H358 cells [2],No antiproliferative effect
